From publication PMC4009859, “Novel Cold-Adapted Esterase MHlip from an Antarctic Soil Metagenome” (Biology, 2013)

Target: T1, MHlip (uncultured bacterium, UniProt D3YKV3)
T1 construct: full length, 262 residues, 28,075 Da (theoretical), C-terminal 6xHis tag (pET22b NdeI/XhoI), E. coli BL21(DE3), Ni-NTA; N-terminus MPFAH
Assay: spectrophotometric p-nitrophenol release at […] nm, initial rates, nonlinear Michaelis-Menten fit
Format: biochemical
Settings: 20 mM Tris-HCl pH 8, 30 °C, pNPA 0-10 mM

T1 sequence (D3YKV3 1-262 limits assumed): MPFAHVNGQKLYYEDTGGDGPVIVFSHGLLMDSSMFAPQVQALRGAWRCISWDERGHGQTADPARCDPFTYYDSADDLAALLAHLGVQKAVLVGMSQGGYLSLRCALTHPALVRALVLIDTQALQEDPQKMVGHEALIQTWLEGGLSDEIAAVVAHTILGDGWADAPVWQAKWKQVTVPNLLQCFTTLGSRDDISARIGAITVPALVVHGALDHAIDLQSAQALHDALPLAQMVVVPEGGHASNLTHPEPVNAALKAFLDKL

In the case of `CC(=O)Oc1ccc([N+](=O)[O-])cc1` [pNPA], the Km is reported as 1.2~0.1 mM.
